The values below come from PMC7237710, “Thanatin Impairs Lipopolysaccharide Transport Complex Assembly by Targeting LptC–LptA Interaction and Decreasing LptA Stability” (Frontiers in Microbiology, 2020).

In brackets after ≈: the same amount, converted by molar mass. Entries after “also recorded” stand apart in the source; their conditions may differ. Residues, ends and D or L forms follow the SMILES beside them. Where only a bound is given, the exact number is not on record here.

One data set concerns LptAm. Conditions: SPR, Biacore T200, CM3 chip, HBS-N; peptide 0, 0.1, 1 μM; listed as Scr. The source says: (§1) Escherichia coli LptC lacking the first 23 residues of the transmembrane domain was expressed from a plasmid (LptC pQESH, QIAGEN) with an N-terminal His-Tag and purified as described ([Laguri et al., 2017]). LptC was expressed in ^15N enriched deuterated medium with specific ^13C-^1H labeling of Isoleucines δ1 and Leucine and Valine proR methyl groups according to standard protocols ([Kerfah et al., 2015]) with NMRbio precursors^1. LptAm coding for residues 28–159 followed by a […] TAG in a pET21b vector was expressed and purified as described ([Laguri et al., 2017]). Both proteins were exchanged to 50 mM Na2HPO4 pH 8.0, 150 mM NaCl buffer.
(§2) Surface plasmon resonance (SPR) experiments were performed on a Biacore T200 with a CM3 chip. HBS-P+ and HBS-N buffers (GE Healthcare) were used for immobilization and interactions, respectively. 66 Resonance units (RUs) of LptAm were immobilized on a flow cell by the amine (EDC-NHS) coupling method followed by ethanolamine saturation, with a flow cell modified only with EDC-NHS-ethanolamine as reference for subtractions. For interactions, protein and ligands were diluted in HBS-N running buffer and regeneration between injections achieved with a 30 s pulse of 10 mM HCl. Sensorgrams shown were subtracted with the reference flow cell as well as with injection of buffer alone.
A general note: In SPR one partner is held on a chip, and binding of the other changes the refractive index at the surface.

Data set [1] concerns E. coli permeabilized mutant NR698. Put plainly: microbe, parasite or virus in culture. Format: cell-based, Escherichia coli. The following applies: 24 h. The method, then: (§3) The minimal inhibitory concentration (MIC) values of thanatin, thanatin scramble, and vancomycin (as a positive control) were assessed with a protocol adapted from [Wiegand et al. (2008)] using 96-well microtiter plates. Stationary phase cultures of the E. coli WT strain MG1655 ([Blattner et al., 1997]), the permeabilized mutants AS19 ([Sekiguchi and Iida, 1967]) and NR698 ([Ruiz et al., 2005]), and the BACTH strain BTH101 ([Karimova et al., 1998]; [Ouellette et al., 2017]) grown at 37°C in LB medium, were diluted in fresh medium adjusting the OD600 to a value of 0.05 and incubated in the presence of twofold decreasing concentrations of the compounds ranging from 64 μg/mL to 62.5 ng/mL. After 24 h of incubation at 37°C, the OD600 was measured by a plate reader (EnSpire Multimode Plate Reader, PerkinElmer). The MIC value was determined as the lowest concentration of compound leading to no detectable growth.

Data set [2] relates to E. coli permeabilized mutant AS19. Put plainly: microbe, parasite or virus in culture. Format: cell-based, Escherichia coli. Conditions: 24 h. The method, then:
as §3

The test system of another data set is E. coli BTH101. In words: microbe, parasite or virus in culture. The data set is classed as cell-based, Escherichia coli. The method, then:
as §3

For data set [3], the system named is LptC–LptAm interaction (T25LptC–TM18LptAm, CA). Put plainly: BACTH assay, inhibition of LptC–LptAm interaction. The data set is classed as cell-based, Escherichia coli. The following applies: BTH101, 18 h, 30°C, 0.5 mM IPTG, 0.7, 1.0, 1.4 μg/mL (sub-MIC), at least eight technical replicates from two independent experiments. The method, then: (§4) To study protein–protein interactions with the BACTH system, electrocompetent BTH101 cells were co-transformed with each pair of plasmids to be tested (Figure 2A), plated onto LB plates containing selective antibiotics (100 μg/mL ampicillin and 50 μg/mL spectinomycin) and incubated at 30°C for 24–48 h. Interaction efficiencies were quantified by determining the β-galactosidase activities in 96-well microtiter plates according to a protocol adapted from [Paschos et al. (2011)]. For this measurement, at least eight clones from each plasmid combination were analyzed for β-galactosidase activity in two independent experiments. […] The β-galactosidase activity was measured from 20 μL culture diluted in 80 μL PM2 buffer (70 mM Na2HPO4. 12H20, 30 mM NaH2PO4. H2O, 1 mM MgSO4, 0.2 mM MnSO4, pH 7.0) containing 8 mg/mL ortho-nitrophenyl-β-galactoside (ONPG), 0.01% SDS, and 50 mM β-mercaptoethanol. […] The optical densities at 420 and 550 nm were recorded for each sample using a plate reader (EnSpire Multimode Plate Reader, PerkinElmer) and the specific activity was calculated with the formula: Miller units = [OD420 - (1.75 × OD550)]/[t × OD600 × (volume in mL)] × 1000, where OD600 is the optical density at 600 nm after overnight incubation and t is the time in minutes needed for color formation.

The test system of data set [4] is LptA–LptA interaction (TM25LptA–TM18LptA, AA). Put plainly: BACTH assay, inhibition of LptA–LptA interaction. The data set is classed as cell-based, Escherichia coli. The following applies: BTH101, 18 h, 30°C, 0.5 mM IPTG, 0.7, 1.0, 1.4, 2.8 μg/mL (sub-MIC); at least eight technical replicates from two independent experiments. The method, then: as §4
Data set [5] deals with permeabilized E. coli mutants (AS19 and NR698). In words: MIC, permeabilized E. coli mutants. Format: cell-based, Escherichia coli. The following applies: permeabilized mutant strains; in words. The method, then:
as §3

The subject of another data set is LptC–LptAm complex. Put plainly: NMR, disruption of LptC–LptAm complex. Format: binding, Escherichia coli. Conditions: 2D-[1H,13C]-methyl-SOFAST, 25°C, 20 μM LptC, 40 μM LptAm, 42 μM peptide, 50 mM Na2HPO4 pH 8.0, 150 mM NaCl, 10% D2O. The method, then:
Nuclear magnetic resonance experiments were recorded at 25°C on Bruker 600 MHz spectrometer equipped with a triple resonance cryoprobe. […] Unlabeled LptAm at 40 μM prepared in the exact same buffer was added to LptC to achieve 100% of LptC complexed with LptAm. Thanatin or Scr at 42 μM was added to the complex and interaction experiments were followed using 2D-[^1H, ^13C]-methyl-SOFAST experiments. NMR experiments were processed and analyzed using Topspin 3.2 and CcpNmr 2.4.

Another data set has as its system LptC–LptAm interaction. In words: SPR, effect on LptC binding to immobilized LptAm. The arrangement: species or system Escherichia coli. The following applies: peptide up to 1 μM followed by LptC injection at 10 μM, HBS-N, listed as Scr.
Description: as §1, §2

The next data set deals with E. coli WT strain MG1655. In words: MIC determination, WT strain MG1655. The data set is classed as cell-based, Escherichia coli. The method, then: as §3
The conditions of data set [6]: in vivo; cited from earlier work. The source says: (§5) Due to its relevance in Gram-negative bacteria cell physiology, LPS biogenesis can be considered a promising target for the development of novel antibacterial molecules. Potent inhibitors of the lipid A biosynthesis were identified in past studies and are continuously in development ([Simpson and Trent, 2019]). Moreover, two compounds targeting the MsbA-mediated IM translocation process have been recently reported ([Ho et al., 2018]; [Zhang et al., 2018]). However, the only inhibitor of LPS biogenesis to have entered, so far, Phase III trials is Murepavadin, a macrocyclic peptidomimetic select ...

Data set [7] deals with Pseudomonas aeruginosa LptD. The following applies: ref Srinivas et al., 2010; Lehman and Grabowicz, 2019; cited from earlier work.
Description: as §5

For data set [8], the target named is T1, His6-LptC_(24-191), LptC lacking the first 23 residues of the transmembrane domain (Escherichia coli, UniProt P0ADV9 24-191).
T1 sequence (looked up): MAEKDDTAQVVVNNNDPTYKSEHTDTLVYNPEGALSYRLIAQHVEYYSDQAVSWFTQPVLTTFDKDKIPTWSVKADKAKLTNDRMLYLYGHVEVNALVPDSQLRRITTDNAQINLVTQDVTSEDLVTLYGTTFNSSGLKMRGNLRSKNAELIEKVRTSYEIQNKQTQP
In words: SPR. Conditions: both partners purified.

A further data set has as its target immobilized LptAm. In words: SPR, Kd of LptC–LptAm. Set-up: species or system Escherichia coli. The following applies: LptC (5.6–100 μM) over immobilized LptAm, CM3 chip, HBS-N, steady-state binding levels, read-out: Kd of LptC–LptAm interaction.
Description: as §1, §2

By Kd is commonly meant the free concentration of one partner at which half of the binding sites on the other are occupied at equilibrium, for simple one-to-one binding.

Turning to `CC[C@H](C)[C@H](NC(=O)[C@H](CS)NC(=O)[C@@H](NC(=O)[C@@H](N)Cc1ccc(O)cc1)C(C)C)C(=O)N[C@@H](CCCNC(=N)N)C(=O)N[C@@H](CCSC)C(=O)N[C@@H](CC(N)=O)C(=O)N[C@@H](CCCCN)C(=O)N[C@H](C(=O)N[C@@H](CO)C(=O)N1CCC[C@H]1C(=O)N[C@@H](CCCCN)C(=O)N[C@@H](CCC(N)=O)C(=O)N[C@@H](CCCNC(=N)N)C(=O)N[C@H](C(=O)N1CCC[C@H]1C(=O)NCC(=O)NCC(=O)N[C@@H](CCCNC(=N)N)C(=O)N[C@@H](CS)C(=O)N[C@@H](CCCCN)C(=O)O)[C@@H](C)O)[C@@H](C)CC` [Thanatin scramble] (H-YVCIRMNKISPKQRTPGGRCK-OH; N-terminus and C-terminus assumed), the “binding to immobilized LptAm” value with LptAm was “no or little binding”. Also, the MIC in [1] (NR698, LB, 37°C, start OD600 0.05, twofold dilutions 64 μg/mL to 62.5 ng/mL, OD600 read-out) is 32 to 64 µg/mL; in [2] (AS19, LB, 37°C, start OD600 0.05, twofold dilutions 64 μg/mL to 62.5 ng/mL, OD600 read-out), 64 µg/mL (≈ 26.3 µM); in the data set on E. coli BTH101 (BTH101, LB, 24 h, 37°C, start OD600 0.05, twofold dilutions 64 μg/mL to 62.5 ng/mL, OD600 read-out) it was >64 µg/mL; in the data set on E. coli WT strain MG1655 (MG1655, LB, 24 h, 37°C, start OD600 0.05, twofold dilutions 64 μg/mL to 62.5 ng/mL, OD600 read-out) it was “above 64 μg/mL”. Besides, the entries for the “effect on LptC–LptAm interaction (β-galactosidase activity)” value in data set [3] and in data set [3] (listed as thanatin scramble) were “fails to disrupt the LptC–LptA interaction in vivo (BACTH assay)” and “not capable of disrupting these periplasmic interactions in a dose-dependent manner”, respectively. For the same molecule, in data set [4], the “effect on LptA–LptA interaction (β-galactosidase activity)” value was “not capable of disrupting these periplasmic interactions in a dose-dependent manner”. Moreover, in data set [5], the “MIC relative to WT strain / antibacterial activity” value is “no significant difference relative to the WT strain”. The “disruption of LptC–LptAm complex (175Ile and 184Ile δ1 methyl shifts)” value is “did not change LptC–LptAm spectra; also recorded: fails to disrupt the LptC–LptA interaction in vivo (BACTH assay) and in vitro (NMR)” in the data set with LptC–LptAm complex; “no disruption of the LptC–LptAm complex” with LptC–LptAm complex (listed as thanatin scramble). Moreover, the “effect on LptC binding to immobilized LptAm” value with LptC–LptAm interaction is “no effect on LptC binding”. The antibacterial activity result with E. coli WT strain MG1655 (scrambled vs thanatin, in words) is on record as “loses the antibacterial activity”.

Take `CN[C@H](CC(C)C)C(=O)N[C@H]1C(=O)N[C@@H](CC(N)=O)C(=O)N[C@H]2C(=O)N[C@H]3C(=O)N[C@H](C(=O)N[C@H](C(=O)O)c4cc(O)cc(O)c4-c4cc3ccc4O)[C@H](O)c3ccc(c(Cl)c3)Oc3cc2cc(c3O[C@@H]2O[C@H](CO)[C@@H](O)[C@H](O)[C@H]2O[C@H]2C[C@](C)(N)[C@H](O)[C@H](C)O2)Oc2ccc(cc2Cl)[C@H]1O` [Vancomycin, reference compound]: the MIC in data set [1] (Escherichia coli) is 0.5 to 1 µg/mL (≈ 0.345 to 0.69 µM); in [2] (Escherichia coli) it was 4 to 8 µg/mL (≈ 2.76 to 5.52 µM); with E. coli BTH101 (Escherichia coli, BTH101, 24 h) it was > 64 µg/mL; in the data set with E. coli WT strain MG1655 (Escherichia coli, MG1655, 24 h), > 64 µg/mL.

Consider Murepavadin, for which, in data set [6], the clinical toxicity result is “nephrotoxicity”. Besides, in [7], the target selectivity result was “selectively directed against Pseudomonas aeruginosa LptD”.

B1: LptAm, LptA residues 28-159 followed by a … tag (purified) (domain or fragment, Escherichia coli, UniProt P0ADV1 28-159, looked up)
chain: VTGDTDQPIHIESDQQSLDMQGNVVTFTGNVIVTQGTIKINADKVVVTRPGGEQGKEVIDGYGKPATFYQMQDNGKPVEGHASQMHYELAKDFVVLTGNAYLQQVDSNIKGDKITYLVKEQKMQAFSDKGKR
notes: also called LptAΔ_(160–185)-His6; monomeric version of LptA; source: E. coli BL21(DE3) (pET21b vector), purified as described (Laguri et al., 2017)
In data set [8], B1 came in with a Kd of 80 ± 44 µM.

B2: LptC: Escherichia coli LptC lacking the first 23 residues of the transmembrane domain, with an N-terminal His-Tag (protein, UniProt P0ADV9 24-191, looked up, fragment)
chain: MAEKDDTAQVVVNNNDPTYKSEHTDTLVYNPEGALSYRLIAQHVEYYSDQAVSWFTQPVLTTFDKDKIPTWSVKADKAKLTNDRMLYLYGHVEVNALVPDSQLRRITTDNAQINLVTQDVTSEDLVTLYGTTFNSSGLKMRGNLRSKNAELIEKVRTSYEIQNKQTQP
modifications: N-terminal His-tag
notes: Escherichia coli LptC lacking the first 23 residues of the transmembrane domain, with an N-terminal His-Tag
For B2, on immobilized LptAm, the Kd was determined as 80 ± 44 µM.
